Results on seven compounds are retold here after ChEMBL document CHEMBL4330083, “Synthesis and evaluation of isoprenylation-resveratrol dimer derivatives against Alzheimer's disease” (Eur J Med Chem, 2019).

The structures appear in SMILES notation.

A short description of data set [1]: Antioxidant activity assessed as inhibition of DPPH free radical after 30 mins by UV-Visible spectrophotometric analysis. Type of data set: functional.
In data set [2] the target is T1, Amine oxidase [flavin-containing] A (Homo sapiens, UniProt P21397).
T1 sequence (P21397 whole entry): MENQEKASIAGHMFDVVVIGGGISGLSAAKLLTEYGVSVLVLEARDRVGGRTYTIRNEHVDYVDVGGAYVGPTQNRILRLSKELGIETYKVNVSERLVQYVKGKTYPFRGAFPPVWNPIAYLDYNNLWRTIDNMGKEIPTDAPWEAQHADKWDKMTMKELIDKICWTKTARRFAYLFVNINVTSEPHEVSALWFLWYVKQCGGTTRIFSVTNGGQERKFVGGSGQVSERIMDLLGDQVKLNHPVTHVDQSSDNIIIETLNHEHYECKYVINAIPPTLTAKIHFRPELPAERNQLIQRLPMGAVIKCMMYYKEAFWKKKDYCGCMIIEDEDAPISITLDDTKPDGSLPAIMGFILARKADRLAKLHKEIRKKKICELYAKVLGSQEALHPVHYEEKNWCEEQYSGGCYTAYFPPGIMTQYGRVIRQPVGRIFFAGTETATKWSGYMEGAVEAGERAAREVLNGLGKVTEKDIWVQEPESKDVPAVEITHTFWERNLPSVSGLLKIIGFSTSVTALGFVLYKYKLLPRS
Briefly: Inhibition of human MAO-A preincubated for 15 mins followed by p-tyramine substrate addition and measured after 20 mins by Amplex red reagent based fluorescence assay.

Data set [3] in a line: Antioxidant activity assessed as ABTS radical cation scavenging activity by measuring trolox equivalents after 150 mins. Type of data set: functional.
The species entered for another data set is Homo sapiens. The data set is described as follows: Selectivity ratio of IC50 for human MAO-A to IC50 for human MAO-B.
The target in data set [4] is T2, Amine oxidase [flavin-containing] B (Homo sapiens, UniProt P27338).
T2 sequence (P27338 whole entry): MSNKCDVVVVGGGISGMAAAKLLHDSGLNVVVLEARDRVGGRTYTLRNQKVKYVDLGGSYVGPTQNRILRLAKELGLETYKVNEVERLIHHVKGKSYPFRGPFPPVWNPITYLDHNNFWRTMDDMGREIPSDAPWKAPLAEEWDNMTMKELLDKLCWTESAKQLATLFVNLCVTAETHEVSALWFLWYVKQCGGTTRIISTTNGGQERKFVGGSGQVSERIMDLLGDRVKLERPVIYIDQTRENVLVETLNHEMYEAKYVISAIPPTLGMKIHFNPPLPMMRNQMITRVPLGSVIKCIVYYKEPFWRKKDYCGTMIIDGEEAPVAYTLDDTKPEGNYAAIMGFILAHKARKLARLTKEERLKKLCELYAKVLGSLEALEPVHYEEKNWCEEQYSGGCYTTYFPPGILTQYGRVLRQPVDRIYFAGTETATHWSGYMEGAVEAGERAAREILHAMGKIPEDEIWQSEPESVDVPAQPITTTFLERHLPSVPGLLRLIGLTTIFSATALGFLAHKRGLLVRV

A short description of data set [5]: Antioxidant activity assessed as ferric ion reduction by measuring trolox equivalents after 3 to 5 mins by FRAP assay. Type of data set: functional.
Another data set in a line: in vitro. Further details: dose or concentration left out as unconfirmed. Particulars: PAMPA. On the technique in general: The PAMPA barrier holds no transporters, so it reflects passive diffusion.

Description for in vitro: Effective permeability of the compound at 100 mg/ml incubated for 16 hrs by PAMPA-BBB assay

`CO[C@@H](c1ccc(O)cc1)[C@H](Oc1ccc(/C=C/c2cc(O)c3c(c2)OC(C)(C)CC3)cc1)c1cc(O)c(CC=C(C)C)c(O)c1`: the IC50 in data set [1] was 185 µM; in data set [2], 10.6 µM; in data set [4] it was 1.9 µM. For the same compound, the Activity in data set [3] was found to be 0.29 equiv; in data set [5] it was 1.04 equiv. In the data set filed under Homo sapiens, the Ratio IC50 stood at 5.58.
Turning to `Oc1ccc([C@H]2Oc3ccc(/C=C/c4cc(O)cc(O)c4)cc3[C@@H]2c2cc(O)cc(O)c2)cc1`, the figures for the IC50 in data set [1], in data set [2] and in data set [4] were 76.8 µM, 8.93 µM and 2.39 µM, respectively. Moreover, the Ratio IC50 in the data set listed under Homo sapiens was determined as 3.74.
As to `Cc1c(C)c2c(c(C)c1O)CCC(C)(C(=O)O)O2` (stereo not given) [TROLOX], the IC50 in data set [1] was determined as 49.8 µM. The Activity in data set [3] and in data set [5] was 1 equiv throughout.
`C[C@]12CC[C@@H]3c4ccc(O)cc4CC[C@H]3[C@@H]1CC[C@@H]2O` [ESTRADIOL] showed an apparent permeability coefficient (Papp) at 16 h in the data set “in vitro” of 13.3 ×10⁻⁶ cm/s.
Take `Oc1ccc(/C=C/c2cc(O)cc(O)c2)cc1` [RESVERATROL]: the IC50 is 79.9 µM in data set [1] and 5.01 µM in data set [4]. For the same compound, the Activity in data set [3] was determined as 1.07 equiv; in data set [5], 0.98 equiv.
As to `CC(C)=CCc1c(O)cc(/C=C/c2ccc(O)cc2)cc1O` [ARACHIDIN-2], the IC50 in data set [1] came to 73.3 µM; in data set [2], 11.3 µM; in data set [4], 3.62 µM. Also, the figures for the Activity in data set [3] and in data set [5] were 1.23 equiv and 1.03 equiv, respectively. For the same compound, the Ratio IC50 in the data set filed under Homo sapiens came out at 3.1.
With `CC(C)=CCc1c(O)cc([C@@H](Oc2ccc(/C=C/c3cc(O)c4c(c3)OC(C)(C)CC4)cc2)[C@@H](C)c2ccc(O)cc2)cc1O`, the results for the IC50 in data set [1], in data set [2] and in data set [4] were 150 µM, 18.9 µM and 9.23 µM, respectively. For the same compound, the Activity in data set [3] turned out to be 0.89 equiv; in data set [5], 1.26 equiv. In the data set listed under Homo sapiens, the Ratio IC50 came to 2.05.

As usually defined, the IC50 is the concentration at which inhibition is half-maximal. One may read the Papp as a coefficient for how fast a substance crosses the barrier.
